Laboratory results from ChEMBL document CHEMBL1201862, “PubChem BioAssay data set” (2004).
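Cells were grown in 96-well plates and exposed to each compound for 48 hours at five concentrations; endpoints were interpolated linearly between bracketing concentrations, or set to the highest concentration if not reached. GI50 marks 50% less growth.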 Calls of active or inactive are those of the source. No stated cut-off is given here; in the data, active = GI50 up to about 1.1 µM and inactive = higher.

Columns and labels:
Experiment in all cases: DTP human tumour cell line panel, 48 h
BT-549 = tested on: BT-549
CAKI-1 = tested on: CAKI-1
EKVX = tested on: EKVX
HCT-116 = tested on: HCT-116
K562 = tested on: K562
MDA-MB-231 = tested on: MDA-MB-231
MDA-N = tested on: MDA-N
MOLT-4 = tested on: MOLT-4
NCI-H23 = tested on: NCI-H23
NCI/ADR-RES = tested on: NCI/ADR-RES
PC-3 = tested on: PC-3
SF-539 = tested on: SF-539
SK-MEL-28 = tested on: SK-MEL-28
SK-OV-3 = tested on: SK-OV-3
SNB-75 = tested on: SNB-75
SR = tested on: SR
T47D = tested on: T47D
U-251 = tested on: U-251
HOP-92 = tested on: HOP-92

Row | SMILES | GI50 (BT-549) | GI50 (CAKI-1) | GI50 (EKVX) | GI50 (HCT-116) | GI50 (K562) | GI50 (MDA-MB-231) | GI50 (MDA-N) | GI50 (MOLT-4) | GI50 (NCI-H23) | GI50 (NCI/ADR-RES) | GI50 (PC-3) | GI50 (SF-539) | GI50 (SK-MEL-28) | GI50 (SK-OV-3) | GI50 (SNB-75) | GI50 (SR) | GI50 (T47D) | GI50 (U-251) | GI50 (HOP-92)
1 | Cc1nc2cc(Cl)c(N)cc2[nH]1 | > 100 µM (inactive) | > 100 µM (inactive) | > 100 µM (inactive) | > 100 µM (inactive) | > 100 µM (inactive) | > 100 µM (inactive) | > 100 µM (inactive) | > 100 µM (inactive) | > 100 µM (inactive) | > 100 µM (inactive) | > 100 µM (inactive) | > 10 µM (inactive) | > 100 µM (inactive) | > 100 µM (inactive) | > 100 µM (inactive) | > 100 µM (inactive) | > 100 µM (inactive) | > 100 µM (inactive) | –
2 | CC(C)C(Nc1ncnc2nc[nH]c12)C(=O)O (stereo unspecified) | > 100 µM (inactive) | > 100 µM (inactive) | > 100 µM (inactive) | > 100 µM (inactive) | > 100 µM (inactive) | > 100 µM (inactive) | > 100 µM (inactive) | – | > 100 µM (inactive) | > 100 µM (inactive) | > 100 µM (inactive) | – | > 100 µM (inactive) | > 100 µM (inactive) | > 100 µM (inactive) | > 100 µM (inactive) | > 100 µM (inactive) | > 100 µM (inactive) | > 100 µM (inactive)
3 | O=c1[nH]c(=O)n(C2OC(CO)C(O)C2O)c2nc(-c3ccc(-c4ccccc4)cc3)cnc12 (stereo unspecified) | > 100 µM (inactive) | > 100 µM (inactive) | > 100 µM (inactive) | > 100 µM (inactive) | > 100 µM (inactive) | > 100 µM (inactive) | > 100 µM (inactive) | > 100 µM (inactive) | > 100 µM (inactive) | > 100 µM (inactive) | > 100 µM (inactive) | > 100 µM (inactive) | – | > 100 µM (inactive) | > 100 µM (inactive) | – | > 100 µM (inactive) | > 100 µM (inactive) | > 100 µM (inactive)
4 | Cc1c2c(n(CCc3ccccc3)c1C)NN=C(C#N)S2(=O)=O | > 100 µM (inactive) | – | > 100 µM (inactive) | > 100 µM (inactive) | > 100 µM (inactive) | > 100 µM (inactive) | > 100 µM (inactive) | > 100 µM (inactive) | > 100 µM (inactive) | > 100 µM (inactive) | > 100 µM (inactive) | > 100 µM (inactive) | > 100 µM (inactive) | > 100 µM (inactive) | > 100 µM (inactive) | 6.53 µM (inactive) | > 100 µM (inactive) | > 100 µM (inactive) | –
5 | CCCCc1ccc(Nc2nc(OC)c3ncn(C4CC(O)C(CO)O4)c3n2)cc1 (stereo unspecified) | 18.9 µM (inactive) | 1.85 µM (inactive) | 1.58 µM (inactive) | 15.8 µM (inactive) | 6.15 µM (inactive) | 17.7 µM (inactive) | 15.5 µM (inactive) | 16.9 µM (inactive) | 18 µM (inactive) | 27 µM (inactive) | 18.1 µM (inactive) | 13.7 µM (inactive) | – | 13.2 µM (inactive) | 18 µM (inactive) | – | 18.9 µM (inactive) | 20.7 µM (inactive) | 1.97 µM (inactive)
6 | COc1cc(O)c2c(=O)c(OC)c(-c3ccc4c(c3)OCO4)oc2c1 | 4.04 µM (inactive) | – | > 60.8 µM (inactive) | > 44.4 µM (inactive) | – | > 37.3 µM (inactive) | > 100 µM (inactive) | > 68.9 µM (inactive) | > 31.5 µM (inactive) | > 100 µM (inactive) | > 100 µM (inactive) | > 27.4 µM (inactive) | > 100 µM (inactive) | 13.9 µM (inactive) | 5.9 µM (inactive) | > 100 µM (inactive) | > 100 µM (inactive) | 9.27 µM (inactive) | –
7 | CCOC(=O)c1cc2c3c(c(C(C)=O)c(OC)c2[nH]1)N(C(=O)CC)CC3 | 17.3 µM (inactive) | 14.9 µM (inactive) | 11.4 µM (inactive) | 14.4 µM (inactive) | 14.1 µM (inactive) | 4.25 µM (inactive) | 16.8 µM (inactive) | 4.05 µM (inactive) | 11.9 µM (inactive) | 13.4 µM (inactive) | 23.3 µM (inactive) | 19.8 µM (inactive) | 15.3 µM (inactive) | 50.1 µM (inactive) | 20.7 µM (inactive) | – | 4.93 µM (inactive) | 19.2 µM (inactive) | 13.5 µM (inactive)
8 | COCN1C(=O)[C@@H]2CCCN2C(=O)c2cc(N)ccc21 | > 100 µM (inactive) | > 100 µM (inactive) | > 100 µM (inactive) | > 100 µM (inactive) | – | > 100 µM (inactive) | > 100 µM (inactive) | – | > 100 µM (inactive) | > 100 µM (inactive) | > 100 µM (inactive) | > 100 µM (inactive) | > 100 µM (inactive) | > 100 µM (inactive) | > 100 µM (inactive) | – | > 100 µM (inactive) | > 100 µM (inactive) | –
9 | CCCCSC1=N/C(=C\c2ccccc2O)C(=O)N1 | 49.4 µM (inactive) | > 100 µM (inactive) | 35.7 µM (inactive) | 40.3 µM (inactive) | 78.3 µM (inactive) | 34 µM (inactive) | 76 µM (inactive) | 68.9 µM (inactive) | 42.7 µM (inactive) | 66.7 µM (inactive) | 23.4 µM (inactive) | 41.5 µM (inactive) | > 100 µM (inactive) | > 100 µM (inactive) | > 100 µM (inactive) | – | 32.7 µM (inactive) | 43.8 µM (inactive) | 44 µM (inactive)
10 | O=C(c1ccccc1Cl)n1oc2ccccc2c1=O | 84.5 µM (inactive) | 29.7 µM (inactive) | > 100 µM (inactive) | 52.8 µM (inactive) | 7.62 µM (inactive) | > 100 µM (inactive) | > 100 µM (inactive) | 22.8 µM (inactive) | – | > 100 µM (inactive) | > 100 µM (inactive) | 37.8 µM (inactive) | > 100 µM (inactive) | > 100 µM (inactive) | 51.1 µM (inactive) | – | > 100 µM (inactive) | > 100 µM (inactive) | 25.2 µM (inactive)
11 | O=C(Cc1ccc2ccccc2c1)NCc1ccc(C(=O)NCCc2ccccc2)cc1 | > 100 µM (inactive) | > 100 µM (inactive) | > 100 µM (inactive) | > 100 µM (inactive) | > 100 µM (inactive) | > 100 µM (inactive) | > 100 µM (inactive) | – | > 100 µM (inactive) | > 100 µM (inactive) | > 100 µM (inactive) | – | > 100 µM (inactive) | > 100 µM (inactive) | > 100 µM (inactive) | > 100 µM (inactive) | > 100 µM (inactive) | > 100 µM (inactive) | > 100 µM (inactive)
12 | Cn1nc2ccc([N+](=O)[O-])cc2[n+]1[O-] | > 100 µM (inactive) | > 100 µM (inactive) | > 100 µM (inactive) | > 100 µM (inactive) | > 100 µM (inactive) | > 100 µM (inactive) | 90.4 µM (inactive) | > 100 µM (inactive) | > 100 µM (inactive) | > 100 µM (inactive) | > 100 µM (inactive) | > 100 µM (inactive) | – | > 100 µM (inactive) | > 100 µM (inactive) | > 100 µM (inactive) | > 100 µM (inactive) | > 100 µM (inactive) | –
13 | COc1nc(N)nc2c1n(C)c[n+]2C | > 100 µM (inactive) | > 100 µM (inactive) | > 100 µM (inactive) | > 100 µM (inactive) | > 100 µM (inactive) | > 100 µM (inactive) | > 100 µM (inactive) | > 100 µM (inactive) | > 100 µM (inactive) | > 100 µM (inactive) | > 100 µM (inactive) | > 100 µM (inactive) | > 100 µM (inactive) | > 100 µM (inactive) | > 100 µM (inactive) | – | > 100 µM (inactive) | > 100 µM (inactive) | > 100 µM (inactive)
14 | O=S(=O)(/N=S(/Nc1ccccc1)C(Cl)Cl)c1ccccc1 (stereo unspecified) | > 100 µM (inactive) | – | > 100 µM (inactive) | > 100 µM (inactive) | > 100 µM (inactive) | > 100 µM (inactive) | > 100 µM (inactive) | > 100 µM (inactive) | > 100 µM (inactive) | > 100 µM (inactive) | > 100 µM (inactive) | > 100 µM (inactive) | > 100 µM (inactive) | > 100 µM (inactive) | > 100 µM (inactive) | – | > 100 µM (inactive) | > 100 µM (inactive) | > 100 µM (inactive)
15 | CCN1C(=O)C(=C/C=C/c2ccc(OC)cc2)C(=O)N(CC)C1=S | 26.7 µM (inactive) | 21.7 µM (inactive) | 24 µM (inactive) | 17.8 µM (inactive) | 31.3 µM (inactive) | 19.8 µM (inactive) | 18.2 µM (inactive) | 25.7 µM (inactive) | > 100 µM (inactive) | 13.8 µM (inactive) | 19.4 µM (inactive) | 19.6 µM (inactive) | – | 23.1 µM (inactive) | – | – | > 100 µM (inactive) | 18.9 µM (inactive) | 14.2 µM (inactive)
16 | CN(Cc1cnc2nc(N)nc(N)c2n1)c1ccc(C(=O)NC(CCS(=O)(=O)O)C(=O)O)cc1 (stereo unspecified) | > 100 µM (inactive) | > 100 µM (inactive) | 1.31 µM (inactive) | 0.0745 µM (active) | – | > 100 µM (inactive) | 0.35 µM (active) | 0.593 µM (active) | 1.88 µM (inactive) | 2.31 µM (inactive) | 0.0665 µM (active) | 0.824 µM (active) | > 100 µM (inactive) | > 100 µM (inactive) | – | 0.136 µM (active) | > 100 µM (inactive) | – | > 100 µM (inactive)
